Test results as given in patent US5759835A, “Bacterial nitric oxide synthase” (priority 1995, dated 1998).
Entries after “also recorded” stand apart in the source; their conditions may differ.

Tests used:
NOSNoc [1] = assay: NOSNoc activity, oxyhemoglobin spectrophotometric assay (kinetics and inhibition); assay type: biochemical, Nocardia species (NRRL 5646); conditions: for Vmax / Km: compound as substrate of NOSNoc; for Ki: model of competitive inhibition; for Mode of inhibition of NO synthesis by NOSNoc: with either L-arginine or L-NOHA as substrate
Method: Assays for NOS activity were carried out using a Shimadzu 160 spectrophotometer by observing the increase in absorbance at 401 nm at 25° C. A typical sample assay contained 50 mM potassium phosphate buffer (pH 7.5), 4 μM oxyHb, 100 μM L-arginine of L-NOHA (for kinetic experiments), 100 μM NADPH, 1 mM CaCl2, 10 μM FAD, 10 μM FMN, 80 μM H4 B, 150 μM DTT and 0.1-2 μg enzyme in a final volume of 1 ml. For assays, the reference cuvette contained all components except for L-arginine or L-NOHA. All assays were initiated by adding enzyme.

NOSNoc [2] = assay: Stoichiometry of product formation and cofactor utilization by NOSNoc; assay type: biochemical, Nocardia species (NRRL 5646); conditions: compound as substrate for NOSNoc
Method: NOS activity was also determined by measuring the decrease in absorbance at 340 nm as NADPH was consumed during the conversation of L-arginine to L-citrulline by NOS. Furfine, E. S., et al. (1993) Biochemistry 32, pp. 8512-8517.
Bredt, D. S., and Snyder, S. H. (1989) Proc. Natl. Acad. Sci. U.S.A. 86, pp. 9030-9033. Reaction samples (50 μl, 100 μM arginine and 1 μCi radioactivity)in 2 ml of stop buffer (20 mM HEPES and 2 mM EDTA, pH 5.5) were applied to a fresh 1-ml Dowex AG50W-X8 (Na+ form, 100-200 mesh) column. Labeled citrulline was eluted with 2 ml of distilled water, and the eluates were collected. Aliquots of 0.1 ml of eluate were dissolved in 5 ml of Budget Solve cocktail in 10 ml scintillation vials, and radioactivity was measured in a Beckman LS 3801 liquid scintillation system.
Nitrite was measured spectrophotometrically using Griess reagent. Green, L. C., et al. (1982) Anal. Biochem. 126, pp. 131-138. […] After standing for 15-30 minutes at room temperature, the absorbance at 540 nm was measured. Nitrite concentrations were estimated by comparison with a standard curve at the range of 0-1.0 μg/ml prepared with standard sodium nitrite in water.
Oxygen concentrations were calculated based on the deflection of the chart recorder versus 206 μM oxygen-total oxygen content in the reaction vessel. Koppenol, W. H. (1985) Adv. Free Radical Biol. Med. 1, 91-131.
Stoichiometric determinations of oxygen consumed, NADPH oxidized, NO and citrulline formed, and kinetic experiments were carried out to confirm that L-NOHA is an intermediate in the biosynthesis of nitric oxide from L-arginine.

[3] = EZ-FIT fit, table values are the mean S.D. of three determinations
[4] = Table III, EZ-FIT fit, mean S.D. of three determinations
[5] = L-Arginine as substrate, mean S.D. of three determinations
[6] = N^G -Hydroxy-L-arginine as substrate, mean S.D. of three determinations

Row | SMILES | Vmax (NOSNoc [1]) [nmol/min/mg protein] | Km (NOSNoc [1]; [3]) [µM] | Vmax (NOSNoc [1]; [4]) [nmole/min/mg protein] | Citrulline formation (NOSNoc [2]) [nmol] | NADPH consump (NOSNoc [2]) [nmol] | Nitrile formation (NOSNoc [2]) [nmol] | Oxygen consump (NOSNoc [2]) [nmol] | Km (NOSNoc [1]; value as printed in the discussion) [µM] | Ki (NOSNoc [1]; [5]) [µM] | Ki (NOSNoc [1]; [6]) [µM] | Mode of inhibition of NO synthesis by NOSNoc (NOSNoc [1]; listed as L-NMA) | Mode of inhibition of NO synthesis by NOSNoc (NOSNoc [1]; listed as L-NNA)
1 | N=C(N)NCCC[C@H](N)C(=O)O [L-Arginine] | 607 | 5.7 | 274 ± 13 | 4.21 ± 0.17 | 8.77 ± 0.32 | 4.63 ± 0.28 | 8.89 ± 0.33 | – | – | – | – | –
2 | N=C(NO)NCCC[C@H](N)C(=O)O [N^G -Hydroxy-L-arginine] | 549 | 15.8 | 303 ± 15 | 4.54 ± 0.21 | 4.38 ± 0.24 | 4.57 ± 0.20 | 4.46 ± 0.16 | 15.8 | – | – | – | –
3 | CNC(=N)NCCC[C@H](N)C(=O)O [N^G -methyl-L-arginine] | – | – | – | – | – | – | – | – | 6.2 ± 0.4 | 21.4 ± 1.2 | typical competitive inhibition; also recorded: reversible competitive inhibitors | –
4 | N=C(NCCC[C@H](N)C(=O)O)N[N+](=O)[O-] [N^G -nitro-L-arginine] | – | – | – | – | – | – | – | – | 9.8 ± 0.6 | 21.4 ± 1.2 | – | typical competitive inhibition; also recorded: reversible competitive inhibitors
